Among the test systems are KM12 colon; T-47D breast; RPMI-8226 leukemia; UO-31 renal; IGROV1 ovarian; NCI-H460 lung; HOP-92 NSCLC; SN12C renal; SF-539 CNS.
Holding throughout (assay): NCI anticancer screen, dose series, 48 h

Where “and” joins values, the source holds several entries; their conditions need not be identical. Identical values can stand only once.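 The compound was tested at five concentrations on cells cultured in 96-well plates, with a 48-hour exposure period. The concentration for 50% growth inhibition is given as GI50. At the TGI there is no net growth.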 Where a SMILES comes first, the peptide text is derived from it. Bridges are numbered along the chain shown (N, C = ends). [ ]: non-standard residue; d: D form. ξ: configuration not given here. ξThr(3R) = C[C@@H](O)C(N)C(=O)O; S5 = C=CCCC[C@](C)(N)C(=O)O

Regarding `COc1cccc(/C=C/c2ccnc3ccccc23)c1OC`, the TGI in the assay with KM12 colon, in the assay on T-47D breast, in the assay with RPMI-8226 leukemia, with UO-31 renal, in the assay with IGROV1 ovarian and in the assay on NCI-H460 lung was > 10 µM in each case. Also, the TGI in the assay with HOP-92 NSCLC, with SN12C renal and in the assay on SF-539 CNS was > 10 µM throughout.
Consider `Cc1ccc(-c2nc3cc(Cl)c(Cl)cc3nc2C#N)cc1`, for which the GI50 in the assay with KM12 colon was > 100 µM; in the assay with T-47D breast, > 100 µM; in the assay with UO-31 renal, > 100 µM; with IGROV1 ovarian, > 100 µM; with NCI-H460 lung it was > 100 µM; in the assay with HOP-92 NSCLC it was 40.5 µM. Moreover, the GI50 in the assay on SN12C renal and with SF-539 CNS was > 100 µM throughout. Besides, the TGI in the assay with KM12 colon, with T-47D breast, with UO-31 renal, in the assay on IGROV1 ovarian, in the assay on NCI-H460 lung and with HOP-92 NSCLC was > 100 µM each time. The TGI in the assay with SN12C renal and in the assay on SF-539 CNS was > 100 µM each time.
Turning to `CC(=O)N[C@H](C(=O)N[C@@H](CCCNC(=N)N)C(=O)N[C@@H](CCCCN)C(=O)N[C@@H](CCCNC(=N)N)C(=O)NC(C(=O)N[C@@H](CC(C)C)C(=O)N[C@@H](CCCNC(=N)N)C(=O)N[C@@]1(C)CCC/C=C\CCC[C@@](C)(C(=O)N[C@@H](CCCNC(=N)N)C(=O)N[C@@H](CCC(=O)O)C(=O)N[C@@H](CC(C)C)C(=O)N[C@H](C(=O)N[C@@H](CCC(=O)O)C(N)=O)C(C)C)NC(=O)[C@H](CCC(N)=O)NC(=O)[C@H](CC(C)C)NC(=O)[C@H](CC(C)C)NC1=O)[C@@H](C)O)C(C)C` (stereo partly drawn) (Ac-VRKR[ξThr(3R)]LR[S5]LLQ[S5]RELVE-NH2; staple (Z) 8-12), the GI50 in the assay with KM12 colon was 1.99 µM; in the assay on T-47D breast, 1.05 µM; with RPMI-8226 leukemia, 8.77 µM; in the assay with UO-31 renal it was 9.2 µM; with NCI-H460 lung, 1.76 µM; in the assay on HOP-92 NSCLC, 2.45 µM. In addition, the GI50 was 3.33 µM in the assay on SN12C renal and 2.1 µM in the assay on SF-539 CNS. For the same molecule, the TGI in the assay on KM12 colon was found to be 8.03 µM; in the assay on T-47D breast it was 2.68 µM; in the assay on RPMI-8226 leukemia, 18.9 µM; in the assay with UO-31 renal it was 17.5 µM; in the assay on NCI-H460 lung, 6.84 µM; in the assay on HOP-92 NSCLC, 8.89 µM. Also, the results for the TGI in the assay on SN12C renal and in the assay with SF-539 CNS were 10.7 µM and 7.54 µM, respectively.
`CCN(CC)c1ccc2nc3c4ccccc4c(=O)cc-3n(-c3ccccc3)c2c1`: the GI50 in the assay on KM12 colon was 1.69 µM; in the assay with T-47D breast, 0.194 µM; in the assay on RPMI-8226 leukemia it was 0.49 µM; in the assay with UO-31 renal it was 0.786 µM; in the assay with IGROV1 ovarian it was 0.62 µM; with NCI-H460 lung it was 2.26 µM. For the same molecule, the GI50 is 1.24 µM in the assay with HOP-92 NSCLC, 2.72 µM in the assay with SN12C renal and 2.49 µM with SF-539 CNS. Besides, the TGI in the assay with KM12 colon stood at 4.46 µM; with T-47D breast it was 0.87 µM; in the assay with RPMI-8226 leukemia, 2.58 µM; in the assay with UO-31 renal, 3.48 µM; in the assay with IGROV1 ovarian it was 2.92 µM; with NCI-H460 lung, 6.46 µM. Moreover, the TGI in the assay on HOP-92 NSCLC was determined as 4.78 µM; in the assay with SN12C renal, 40.2 µM; with SF-539 CNS, 6.8 µM.
On to `CN(C)C=NC1CCC(C(C)(C)C)CC1` (centres undefined), for which the TGI in the assay with T-47D breast is 37.5 µM; in the assay with UO-31 renal it was 30.8 µM; in the assay on IGROV1 ovarian it was 37.9 µM; in the assay with NCI-H460 lung, 35.1 µM; with HOP-92 NSCLC, 34.6 µM; in the assay on SN12C renal, 34.6 µM. In the assay with SF-539 CNS, this molecule returned a TGI of 31.8 µM.
In the case of `CCCCCCCCCCCCCCCCCCOc1ccccc1CC(=O)OCC[N+](CC)(CC)CC`, the GI50 in the assay with KM12 colon was 1.42 µM; in the assay with T-47D breast, 1.48 µM; with UO-31 renal, 5.52 µM; in the assay with IGROV1 ovarian, 0.923 µM; with NCI-H460 lung, 1.73 µM; in the assay with HOP-92 NSCLC it was 1.1 µM. Also, the figures for the GI50 in the assay with SN12C renal and with SF-539 CNS were 1.3 µM and 1.62 µM, respectively. The TGI in the assay on KM12 colon was 3.86 µM; with T-47D breast it was 8.16 µM; in the assay on UO-31 renal, 14.5 µM; with IGROV1 ovarian, 1.97 µM; with NCI-H460 lung, 6.34 µM; with HOP-92 NSCLC it was 3.52 µM. Moreover, the TGI with SN12C renal stood at 5.68 µM; in the assay with SF-539 CNS, 5.82 µM.
As to `O=c1ccc(=O)n(-c2ccccc2)[nH]1`, the TGI in the assay with KM12 colon, with T-47D breast, in the assay on RPMI-8226 leukemia, in the assay with UO-31 renal, with IGROV1 ovarian and in the assay on NCI-H460 lung was > 100 µM in each case. Further, the TGI in the assay with HOP-92 NSCLC, in the assay with SN12C renal and in the assay with SF-539 CNS was > 100 µM throughout.
For the molecule `COc1ccc2nc(-c3ccccc3)cc(Nc3cccc(C(C)=O)c3)c2c1`, the GI50 with T-47D breast is 13.4 µM; in the assay with RPMI-8226 leukemia, 33.2 µM; in the assay on UO-31 renal, 22.8 µM; with IGROV1 ovarian, 20.6 µM; with NCI-H460 lung, 6.38 µM; in the assay on HOP-92 NSCLC it was 15.2 µM. Also, the GI50 with SN12C renal is 3.96 µM; in the assay with SF-539 CNS, 1.67 µM. Besides, the TGI in the assay on T-47D breast was > 100 µM; in the assay on RPMI-8226 leukemia, > 100 µM; in the assay on UO-31 renal, > 100 µM; with IGROV1 ovarian it was > 100 µM; with NCI-H460 lung, 40.7 µM; in the assay with HOP-92 NSCLC, 38.4 µM. Also, the TGI worked out at 17.9 µM in the assay on SN12C renal and 3.66 µM with SF-539 CNS.
As to `COc1ccc(Cl)cc1Nc1nc(C(F)(F)F)ccc1C(=O)N/N=C/c1cccnc1`, the GI50 is 3.63 µM with KM12 colon; 2.12 µM with T-47D breast; 2.28 µM with RPMI-8226 leukemia; 4.1 µM with UO-31 renal; 4.33 µM in the assay with IGROV1 ovarian; 4.03 µM in the assay on NCI-H460 lung. Moreover, the GI50 in the assay with HOP-92 NSCLC is 2.42 µM; in the assay with SN12C renal, 7.78 µM; in the assay with SF-539 CNS, 5.12 µM. The TGI with KM12 colon, with T-47D breast, in the assay on RPMI-8226 leukemia, with UO-31 renal, with IGROV1 ovarian and in the assay with NCI-H460 lung was > 100 µM each time. The TGI was 28.3 µM in the assay with HOP-92 NSCLC, > 100 µM with SN12C renal and > 100 µM in the assay on SF-539 CNS.
Take `O=C(O)c1c(Cl)c(Cl)c(Cl)c(Cl)c1C(=O)Nc1ccc2cn[nH]c2c1`: the TGI in the assay on KM12 colon, in the assay on T-47D breast, in the assay on RPMI-8226 leukemia, in the assay with UO-31 renal, in the assay with IGROV1 ovarian and with NCI-H460 lung was > 100 µM each time. Besides, the TGI with HOP-92 NSCLC, with SN12C renal and in the assay on SF-539 CNS was > 100 µM each time.
As to `O=C1c2ccccc2C(=O)c2c1ccc1c(=O)n(-c3ccccc3C(F)(F)F)nnc21`, the GI50 was 1.88 µM in the assay on KM12 colon; 1.86 µM with T-47D breast; 1.68 µM with UO-31 renal; 1.33 µM in the assay on IGROV1 ovarian; 1.97 µM in the assay with NCI-H460 lung; 2.08 µM in the assay with HOP-92 NSCLC. Further, the GI50 in the assay with SN12C renal was 2.23 µM; in the assay on SF-539 CNS, 2.57 µM. Besides, the TGI was 5.5 µM in the assay with KM12 colon; 6.98 µM in the assay on T-47D breast; > 100 µM in the assay with UO-31 renal; 3.31 µM with IGROV1 ovarian; 5.07 µM in the assay on NCI-H460 lung; 5.94 µM in the assay on HOP-92 NSCLC. Moreover, the TGI in the assay on SN12C renal worked out at 28.9 µM; with SF-539 CNS, 8.49 µM.
As for `CCCCCC[C@@H](C)Nc1nc2ccccc2c2occc12`, the GI50 in the assay with KM12 colon was 14 µM; in the assay with T-47D breast it was 7.24 µM; with RPMI-8226 leukemia, 1.47 µM; in the assay with UO-31 renal it was 2.05 µM; in the assay on IGROV1 ovarian it was 0.0871 µM; with NCI-H460 lung, 4.19 µM. In addition, the GI50 in the assay with HOP-92 NSCLC was 11.2 µM; in the assay with SN12C renal, 12.8 µM; in the assay with SF-539 CNS it was 10.5 µM. The TGI in the assay on KM12 colon was 34.4 µM; in the assay on T-47D breast, 23.2 µM; in the assay with RPMI-8226 leukemia, > 100 µM; in the assay with UO-31 renal it was 17.2 µM; in the assay on IGROV1 ovarian it was 11.5 µM; in the assay on NCI-H460 lung, > 100 µM. Besides, the TGI in the assay with HOP-92 NSCLC was 27.2 µM; with SN12C renal, 25.4 µM; with SF-539 CNS, 22.5 µM.
Turning to `N#Cc1ccccc1C#C/C=C\C#CC#C/C=C\C#Cc1ccccc1C#N`, the GI50 in the assay with KM12 colon was 16.9 µM; in the assay on T-47D breast, 10.3 µM; with RPMI-8226 leukemia, 4.11 µM; with UO-31 renal, 21.8 µM; in the assay on IGROV1 ovarian, 15 µM; with NCI-H460 lung, 41.3 µM. For the same molecule, the GI50 is 10.4 µM in the assay on HOP-92 NSCLC and 22.6 µM in the assay with SF-539 CNS. The TGI with KM12 colon is 38.4 µM; in the assay on T-47D breast, 46.5 µM; in the assay on RPMI-8226 leukemia it was > 100 µM; with UO-31 renal, > 100 µM; in the assay with IGROV1 ovarian, 91.6 µM; in the assay with NCI-H460 lung, > 100 µM. For the same molecule, the TGI in the assay on HOP-92 NSCLC and in the assay on SF-539 CNS was > 100 µM in each case.
For the molecule `CC(=O)OC(C)(C)/C=C/C(=O)[C@](C)(O)[C@H]1[C@H](O)C[C@@]2(C)[C@@H]3CC=C4[C@@H](C=C(O)C(=O)C4(C)C)[C@]3(C)C(=O)C[C@]12C`, the TGI in the assay on KM12 colon was 5.61 µM and 3.46 µM and 4.83 µM; in the assay on T-47D breast it was 1.46 µM; in the assay with RPMI-8226 leukemia, 771 nM [middle of 4 runs]; in the assay on NCI-H460 lung it was 1.81 µM and 1.68 µM and 1.49 µM; in the assay on SN12C renal, 3.34 µM and 1.52 µM and 0.938 µM.

The values above are taken from PubChem BioAssay (NCI).
